Measured values: patent publication US10947252B2, “Inhibitors of KEAP1-Nrf2 protein-protein interaction” (Janssen Pharmaceutica NV, priority 2018, dated 2021)

Columns and labels:
[1] = biological target: Kelch domain of human KEAP1 (321-624 aa) (Homo sapiens (Human), UniProt Q14145); assay: KEAP1 KELCH ThermoFluor binding assay; conditions: KEAP Kelch […], 1,8-ANS, pH 7.0, average of results obtained, read-out: Tf Kd;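 further: Ligand-induced melting temperature shift of E. coli-expressed KEAP1 Kelch protein, Kd estimated from concentration-response curves of ΔTm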
[2] = tested on: Glo-Response ARE-luc2P HEK293 cell line; assay: ARE luciferase reporter cell-based assay; conditions: average of results obtained;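 further: luciferase signal tracks Nrf2 activation of the ARE once compounds disrupt KEAP1-Nrf2 binding, read with One-Glo reagent, DMSO serving as low control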

Chain of Kelch domain of human KEAP1 (321-624 aa) (Q14145 321-624): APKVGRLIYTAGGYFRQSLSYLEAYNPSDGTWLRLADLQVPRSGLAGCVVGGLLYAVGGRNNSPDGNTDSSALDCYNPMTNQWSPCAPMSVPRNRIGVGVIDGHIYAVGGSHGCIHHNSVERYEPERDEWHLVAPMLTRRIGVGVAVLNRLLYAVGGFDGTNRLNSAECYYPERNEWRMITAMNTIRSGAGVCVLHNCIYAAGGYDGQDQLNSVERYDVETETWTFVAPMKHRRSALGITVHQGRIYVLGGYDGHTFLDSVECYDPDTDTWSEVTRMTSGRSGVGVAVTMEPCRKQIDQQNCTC

## Cc1ccc([C@H](c2ccn3c(C(F)(F)F)nnc3c2C)C(C)(C)C(=O)O)cc1CN1CC2(CCOCC2)Oc2nc(NC(C)CN3CCCCC3)c(C)cc2S1(=O)=O (stereo in doubt) [Example 376, 3-(*R)-2,2-Dimethyl-3-(4-methyl-3-((8′-methyl-1′,1′-dioxido-7′-((1-piperidin-1-yl)propan-2-yl)amino)-2,3,5,6-tetrahydrospiro[pyran-4,4′-pyrido[2,3-b][1,4,5]oxathiazepin]-2′(3′H)-yl)methyl)phenyl)-3-(8-methyl-3-(trifluoromethyl)-[1,2,4]triazolo[4,3-a]pyridine-7-yl)propanoic Acid]
[1]
  Kd: < 1 nM
[2]; Homo sapiens, HEK293, 24 h
  EC50: 57.3 nM

## Cc1ccc([C@@H](CC(=O)O)c2ccn3c(C(F)(F)F)nnc3c2C)nc1CN1C[C@H]2CCCCN2c2ncc(Cl)cc2S1(=O)=O (single isomer, unassigned) [Example 520, (*S)-3-(6-(((*R)-3-Chloro-5,5-dioxido-7,7a,8,9,10,11-hexahydro-6H-dipyrido[2,1-d:2′,3′-f][1,2,5]thiadiazepin-6-yl)methyl)-5-methylpyridin-2-yl)-3-(8-methyl-3-(trifluoromethyl)-[1,2,4]triazolo[4,3-a]pyridin-7-yl)propanoic Acid]
[1]
  Kd: < 1 nM
[2]; Homo sapiens, HEK293, 24 h
  EC50: 15.6 nM

## Cc1ccc(C(CC(=O)O)c2ccn3c(C(F)(F)F)nnc3c2C)cc1CN1CC2(CC2)N(C)c2ncccc2S1(=O)=O (racemic) [Example 183, (R/S)-3-(4-Methyl-3-((5′-methyl-1′,1′-dioxido-5′H-spiro[cyclopropane-1,4′-pyrido[2,3-f][1,2,5]thiadiazepin]-2′(3′H)-yl)methyl)phenyl)-3-(8-methyl-3-(trifluoromethyl)-[1,2,4]triazolo[4,3-a]pyridin-7-yl)propanoic Acid]
[1]
  Kd: 1.6 nM
[2]; Homo sapiens, HEK293, 24 h
  EC50: 370 nM

## Cc1cnc([C@@H](c2ccn3c(C(F)F)nnc3c2C)C(C)(C)C(=O)O)cc1CN1CC2(CCOCC2)Oc2nc(OCCN3CCCC3)c(C)cc2S1(=O)=O (single isomer, unassigned) [Example 640, (*S)-3-(3-(Difluoromethyl)-8-methyl-[1,2,4]triazolo[4,3-a]pyridin-7-yl)-2,2-dimethyl-3-(5-methyl-4-((8′-methyl-1′,1′-dioxido-7′-(2-(pyrrolidin-1-yl)ethoxy)-2,3,5,6-tetrahydrospiro[pyran-4,4′-pyrido[2,3-b][1,4,5]oxathiazepin]-2′(3′H)-yl)methyl)pyridin-2-yl)propanoic Acid]
[1]
  Kd: < 1 nM
[2]; Homo sapiens, HEK293, 24 h
  EC50: 73.9 nM

## Cc1cnc2c(c1)S(=O)(=O)N(Cc1cc([C@H](CC(=O)O)c3ccn4c(C(F)(F)F)nnc4c3C)ccc1Cl)CC1CCCCN21 (single isomer, unassigned) [Example 91, (*S)-3-(4-Chloro-3-(((*S)-3-methyl-5,5-dioxido-7,7a,8,9,10,11-hexahydro-6H-dipyrido[2,1-d:2′,3′-f][1,2,5]thiadiazepin-6-yl)methyl)phenyl)-3-(8-methyl-3-(trifluoromethyl)-[1,2,4]triazolo[4,3-a]pyridine-7-yl)propanoic Acid]
[1]
  Kd: < 1 nM
[2]; Homo sapiens, HEK293, 24 h
  EC50: 14.4 nM

## CCn1nnc2c(C)c([C@H](CC(=O)O)c3ccc(C)c(CN4C[C@@H]5CCCN5c5ncccc5S4(=O)=O)c3)ccc21 (single isomer, unassigned) [Example 157, (*R)-3-(3-(((S)-5,5-Dioxido-7a,8,9,10-tetrahydropyrido[2,3-f]pyrrolo[2,1-d][1,2,5]thiadiazepin-6(7H)-yl)methyl)-4-methylphenyl)-3-(1-ethyl-4-methyl-1H-benzo[d][1,2,3]triazol-5-yl)propanoic Acid]
[1]
  Kd: ~3.2 nM
[2]; Homo sapiens, HEK293, 24 h
  EC50: 62 nM

## Cc1cnc2c(c1)S(=O)(=O)N(Cc1cc([C@@H](c3ccc4c(nnn4C4CC4)c3C)C(C)(C)C(=O)O)cnc1C)CC1(CCOCC1)O2 (single isomer, unassigned) [Example 229, (*R)-3-(1-Cyclopropyl-4-methyl-1H-benzo[d][1,2,3]triazol-5-yl)-2,2-dimethyl-3-(6-methyl-5-((8′-methyl-1′,1′-dioxido-2,3,5,6-tetrahydrospiro[pyran-4,4′-pyrido[2,3-b][1,4,5]oxathiazepin]-2′(3′H)-yl)methyl)pyridin-3-yl)propanoic Acid]
[1]
  Kd: 17000 nM
[2]; Homo sapiens, HEK293, 24 h
  EC50: 2430 nM

## Cc1ccc(C(CC(=O)O)c2ccn3c(C(F)(F)F)nnc3c2C)nc1CN1CC2CCCCN2c2ncc(C#N)cc2S1(=O)=O (stereo not drawn) [Example 33, 3-(6-((3-Cyano-5,5-dioxido-7,7a,8,9,10,11-hexahydro-6H-dipyrido[2,1-d:2′,3′-f][1,2,5]thiadiazepin-6-yl)methyl)-5-methylpyridin-2-yl)-3-(8-methyl-3-(trifluoromethyl)-[1,2,4]triazolo[4,3-a]pyridin-7-yl)propanoic Acid]
[1]
  Kd: < 1 nM
[2]; Homo sapiens, HEK293, 24 h
  EC50: 30.6 nM

## Cc1ccc([C@@H](c2cc(C)n3c(C(F)(F)F)nnc3c2C)C(C)C(=O)O)cc1CN1C[C@@H]2CCCCN2c2ncccc2S1(=O)=O (relative stereo) [Example 134, (3*S)-3-(5,8-Dimethyl-3)-(trifluoromethyl)-[1,2,4-triazolo[4,3-a]pyridine-7-yl)-3-(3-(((*S)-5,5-dioxido-7,7a,8,9,10,11-hexahydro-6H-dipyrido[2,1-d:2′,3′-][1,2,5]thiadiazepin-6-yl)methyl)-4-methylphenyl)-2-methylpropanoic Acid]
[1]
  Kd: < 1 nM
[2]; Homo sapiens, HEK293, 24 h
  EC50: 61.3 nM

## Cc1ccc([C@H](CC(=O)O)c2ccn3c(C(F)(F)F)nnc3c2C)cc1CN1CC(C)(C)Oc2ccccc2S1(=O)=O (single isomer, unassigned) [Example 284, 3-(3-((4,4-Dimethyl-1,1-dioxido-3,4-dihydro-2H-benzo[b][1,4,5]oxathiazepin-2-yl)methyl)-4-methylphenyl)-3-(8-methyl-3-(trifluoromethyl)-[1,2,4]triazolo[4,3-a]pyridin-7-yl)propanoic Acid]
[1]
  Kd: 1.65 nM
[2]; Homo sapiens, HEK293, 24 h
  EC50: 213 nM

## Cc1ccc([C@@H](c2ccn3c(C(F)F)nnc3c2C)C(C)(C)C(=O)O)nc1CN1CC2(COC2)Oc2ncccc2S1(=O)=O (single isomer, unassigned) [Example 610, (*S)-3-(3-(Difluoromethyl)-8-methyl-[1,2,4]triazolo[4,3-a]pyridin-7-yl)-3-(6-((1′,1′-dioxidospiro[oxetane-3,4′-pyrido[2,3-b][1,4,5]oxathiazepin]-2′(3′H)-yl)methyl)-5-methylpyridin-2-yl)-2,2-dimethylpropanoic Acid]
[1]
  Kd: < 1 nM
[2]; Homo sapiens, HEK293, 24 h
  EC50: 4.42 nM

## Cc1ccc([C@@H](CC(=O)O)c2ccn3c(C(F)F)nnc3c2C)cc1CN1C[C@H]2CCCN2c2ncccc2S1(=O)=O (single isomer, unassigned) [Example 451, (*R)-3-(3-(Difluoromethyl)-8-methyl-[1,2,4]triazolo[4,3-a]pyridin-7-yl)-3-(3-(((R)-5,5-dioxido-7a,8,9,10-tetrahydropyrido[2,3-f]pyrrolo[2,1-d][1,2,5]thiadiazepin-6(7H)-yl)methyl)-4-methylphenyl)propanoic Acid]
[1]
  Kd: < 1 nM
[2]; Homo sapiens, HEK293, 24 h
  EC50: 265 nM

## Cc1ccc([C@H](c2ccn3c(C4CC4)nnc3c2C)C(C)(C)C(=O)O)cc1CN1CC2(CCOCC2)Oc2ncccc2S1(=O)=O (single isomer, unassigned) [Example 42, (*R)-3-(3-Cyclopropyl-8-methyl-[1,2,4]triazolo[4,3-a]pyridin-7-yl)-3-(3-((1′,1′-dioxido-2,3,5,6-tetrahydrospiro[pyran-4,4′-pyrido[2,3-b][1,4,5]oxathiazepin]-2′(3′H)-yl)methyl)-4-methylphenyl)-2,2-dimethylpropanoic Acid]
[1]
  Kd: 7540 nM
[2]; Homo sapiens, HEK293, 24 h
  EC50: 3460 nM

## Cc1ccc(C(CC(=O)O)c2ccn3c(C(F)(F)F)nnc3c2C)cc1CN1C[C@H]2CCCN2c2ccccc2S1(=O)=O (stereo partly drawn) [Example 265, 3-(3-(((R)-5,5-Dioxido-7a,8,9,10-tetrahydrobenzo[f]pyrrolo[2,1-d][1,2,5]thiadiazepin-6(7H)-yl)methyl)-4-methylphenyl)-3-(8-methyl-3-(trifluoromethyl)-[1,2,4]triazolo[4,3-a]pyridin-7-yl)propanoic Acid]
[1]
  Kd: < 1 nM
[2]; Homo sapiens, HEK293, 24 h
  EC50: 31.2 nM

## Cc1ccc([C@H](CC(=O)O)c2ccn3c(C(F)(F)F)nnc3c2C)nc1CN1CC2(COC2)Oc2ncccc2S1(=O)=O (single isomer, unassigned) [Example 495, (*R)-3-(6-((1′,1′-Dioxidospiro[oxetane-3,4′-pyrido[2,3-b][1,4,5]oxathiazepin]-2′(3′H)-yl)methyl)-5-methylpyridin-2-yl)-3-(8-methyl-3-(trifluoromethyl)-[1,2,4]triazolo[4,3-a]pyridin-7-yl)propanoic Acid]
[1]
  Kd: < 1 nM
[2]; Homo sapiens, HEK293, 24 h
  EC50: 2860 nM

## Cc1c([C@H](CC(=O)O)c2ccc(Cl)c(CN3CC4(COC4)Oc4ncccc4S3(=O)=O)c2)ccn2c(C(F)(F)F)nnc12 (single isomer, unassigned) [Example 87, (*R)-3-(4-Chloro-3-((1′,1′-dioxoidospiro[oxetane-3,4′-pyrido[2,3-b][1,4,5]oxathiazepin]-2′(3′H)-yl)methyl)phenyl)-3-(8-methyl-3-(trifluoromethyl)-[1,2,4]triazolo[4,3-a]pyridine-7-yl)propanoic Acid]
[1]
  Kd: 1.3 nM
[2]; Homo sapiens, HEK293, 24 h
  EC50: 2530 nM

## (*S)-3-(3-((7′-(3-((2-(2-aminoethoxy)ethyl)amino)-3-oxopropyl)-1′,1′-dioxido-2,3,5,6-tetrahydrospiro[pyran-4,4′-pyrido[2,3-b][1,4,5]oxathiazepin]-2′(3′H)-yl)methyl)-4-methylphenyl)-2,2-dimethyl-3-(8-methyl-3-(trifluoromethyl)-[1,2,4]triazolo[4,3-a]pyridin-7-yl)propanoic Acid [Example 345]
[1]
  Kd: > 10000 nM
[2]; 24 hours
  EC50: > 20 nM

## Cc1ccc([C@@H](CC(=O)O)c2ccn3c(C(F)(F)F)nnc3c2C)cc1CN1CC(C)(C)Oc2ncccc2S1(=O)=O (single isomer, unassigned) [Example 270, (*R)-3-(3-((4,4-Dimethyl-1,1-dioxido-3,4-dihydro-2H-pyrido[2,3-b][1,4,5]oxathiazepin-2-yl)methyl)-4-methylphenyl)-3-(8-methyl-3-(trifluoromethyl)-[1,2,4]triazolo[4,3-a]pyridin-7-yl)propanoic Acid]
[1]
  Kd: 1.28 nM
[2]; Homo sapiens, HEK293, 24 h
  EC50: 2420 nM
